Experimental data: US6004905A, “Hyperabas: biologically active abscisic acid analogs with unsaturated carbon substituents at the 8'-methyl or 9'-methyl carbon atoms” (National Research Council of Canada, priority 1998, dated 1999)
pEC50, pIC50: −log10 of the molar value. Entries after “also recorded” stand apart in the source; their conditions may differ. Where two headings read alike, the source gives them in different places.

How the values were obtained:
[1] = tested on: suspension-cultured corn cells (var. Black Mexican Sweet); assay: Growth inhibition of suspension-cultured corn cells; assay type: cell-based, corn (maize); conditions: for growth inhibition activity (comparison in words): four days; for inhibition at 0.33 µM / pIC50: Zea mays, 96 h; for inhibition at 0.33 µM: four day period, read-out: growth inhibition relative to the control; for pIC50: four days after addition, read-out: concentration required for 50% inhibition of growth
wheat seedlings = assay: Transpiration in wheat seedlings; assay type: in vivo, Triticum aestivum L. cv Katepwa; conditions: for pEC50: Triticum aestivum, 3 h, intact wheat seedlings, three hours after application, read-out: concentration to reduce the transpiration rate to 50% (TR50); for reduction of transpiration (summary in words): in vivo; for reduction in transpiration: (+)-forms of methyl esters, 100 μM, 3 hours (FIG. 8)
Text: ABA is a key signal molecule involved in regulating transpiration in plants (W. J. Davies T. A. Mansfield 1988 Abscisic acid and drought resistance in plants ISI Atlas of Science: Animal and Plant Sciences 0894-3761 p. 263-269). […] This difference in activity is shown in FIG. 4 in which the % transpiration effected by the (+)-forms of methyl esters of ABA (214) , 8'-methyl (370) and 8'-methylene ABA (357) are compared. The structures are as follows: [drawing 13] Seed Germination
The transpiration rate of 6 to 10 day old wheat seedlings (Triticum aestivum L. cv Katepwa) was measured as previously described (Rose et al.^7, 1996 incorporated herein by reference). Antitranspirant activity of the analogs (prepared as a 1% ethanol solution in water) was measured over a range of concentrations to determine the concentration where the transpiration rate of the wheat seedling is reduced by 50%. The transpiration rate (μMol H2 O/cm^2 s) was calculated and then given as a percentage of the initial transpiration rate of the plant (typically 0.28-0.35 μMol H2 O/cm^2 s), corrected for the effect of the control (1% ethanol).
ABA is a key signal molecule involved in regulating transpiration in plants. We had previously determined that esters were as active as acids in this assay (data not shown) so the effect of the methyl esters of natural ABA (+)-^8 '-methylene ABA and 8'-methyl ABA on transpiration in intact wheat seedlings was compared three hours after application. […] The difference in responses may be due to reduced uptake of the 8'-methyl ABA in the intact wheat seedling.

excised wheat embryos [2] = assay: Wheat embryo germination inhibition; assay type: in vivo, Triticum aestivum L. cv. Clark's Cream; conditions: for concentration giving equivalent germination inhibition: (+)-8'-methylene ABA versus (+)-ABA (FIG. 12)
Experimental: Grains of soft white wheat (Triticum aestivum L. cv. Clark's Cream) were used. For bioassay, embryos with some adhering endosperm and pericarp attached were cut from the grains with a razor blade. Analogs were prepared by dissolving into a minimal amount of DMSO to prepare a 0.1 M solution, and then diluted with […], pH 5.8, to 0.01, 0.1, 1, 10 and 100 μM. For each analog concentration six replicate germination assays were conducted on 10 embryos each at 30° C. Embryos were incubated in Petri dishes (100×15 mm) containing 6 ml solution.

[3] = tested on: suspension-cultured corn cells (var. Black Mexican Sweet); conditions: Balsevich et al 1994, cited from earlier work
cress seed = assay: Cress seed germination inhibition; assay type: in vivo; conditions: for germination of cress seed: 5 μM (printed 5 M)
Experimental: The experimental conditions were as follows: 100 seeds are placed on a 9 cm Whatman no. 1 filter paper in a petri dish and treated with 5 ml of solution.
The final concentration of the ethanol in the assay solutions was <0.05%. Assays were conducted with 100 seeds in each Petri dish and performed in triplicate. The germination measurements were based on the growth of the primary root. A seed was considered germinated when the radical was approximately the same length as the seed.

corn cells = assay: Depletion (persistence) from corn cell culture media; assay type: in vitro ADME, corn (maize)
Experimental: Ethanolic stock solutions of (+)-ABA, (+)-8'-methylene ABA and (+)-8'-methyl ABA were added to flasks containing 0.2 g of corn cells and 10 ml of culture medium to obtain a final concentration of 100 μM of hormone or analog. Aliquots of medium (100 μl) were removed at intervals and analyzed for ABA or ABA analog content by HPLC as described previously (Balsevich et al.^6, 1994). Each compound was inoculated into 3 flasks and duplicate samples were removed at the indicated time points. The corn cells were used 1 or 2 days after subculturing.

[4] = tested on: ABA-responsive cor6.6 promoter; assay: ABA-inducible gene expression (GUS activity) in transgenic tobacco seedlings containing Pcor6.6-GUS; assay type: in vivo, transgenic tobacco (promoter from Arabidopsis thaliana); conditions: 24 hours; for induction of GUS activity: 200 micromolar, relative to untreated control
Text: The results shown are an average of duplicate assays on samples containing 34 seedlings.
The results shown are an average of duplicate samples containing cotyledons from 34 seedlings.

excised wheat embryos [5] = conditions: Walker-Simmons et al., 1992, cited from earlier work
[6] = tested on: suspension-cultured corn cells; conditions: Balsevich et al 1994, cited from earlier work
[7] = tested on: suspension-cultured corn cells; assay: Medium pH changes in corn cell suspension cultures; assay type: cell-based, corn (maize); conditions: 10 μM solution
Experimental: Cell growth was measured by the change in fresh weight over a 4-day period, as previously described (Balsevich et al.^6, 1994). The medium pH changes associated with addition of (+)-ABA and (+)-8'-methylene ABA were also measured as described by Balsevich et al.^6, (1994).

[8] = ABA-like (hormonal) activity in various assays; design: species or system plants; conditions: wheat and cress
[9] = tested on: Black Mexican Sweet maize cells; assay: Metabolites from maize suspension cells; assay type: in vitro ADME; conditions: 100 μM, 90 h
Experimental: Eighteen g of Black Mexican Sweet maize cells were subcultured into a 1L flask containing 500 ml sterile medium as described previously (Balsevich et al.^6, 1994). […] At the end of the culture period, the cells were removed by filtration. The filtrate was frozen until processed for isolation.
The metabolites were extracted from the culture filtrate by a chromatographic procedure using Supelco Amberlite XAD-2 resin (Balsevich et al. 6, 1994). The crude product isolated from the resin was partially purified by preparative TLC (silica gel 60 GF254, 20 cm×20 cm×1 mm, toluene-EtOAc-HOAc 25:15:2 as eluent), giving two isomeric acids, The acids were separately reacted with diazomethane, and then further purified by HPLC as their methyl esters yielding approx. 0.5 mg of each metabolite.

In the case of C#CC1(C)CC(=O)C=C(C)C1(O)C=CC(C)=CC(=O)O (stereo not shown) [8'-acetylene ABA], the “growth inhibition activity (comparison in words)” value (from here on “growth inhibition activity”) [1] was “more potent than ABA”.
With C=C[C@@]1(C)CC(=O)C=C(C)[C@]1(O)/C=C/C(C)=C\C(=O)OC [compound 357, (+) Methyl 8'-methyleneabscisate] the pEC50 (wheat seedlings; methyl esters) was 5.00 to 5.30 and the “reduction of transpiration (summary in words)” value (“reduction of transpiration” below) (wheat seedlings) was “most active analog”.
With CC1=CC(=O)CC(C)(C)[C@@]1(O)/C=C/C(C)=C\C(=O)O [(+)-ABA, abscisic acid] the inhibition at 0.33 µM [1] was 17%, the pIC50 [1] was about 5.00 and the “concentration giving equivalent germination inhibition” value (excised wheat embryos [2]) was 10 µM. For the same compound, the “growth inhibition (literature)” value [3] was “inhibits growth of maize suspension-cultured cells over a four day period”, the “growth inhibition (literature)” value ([3]; listed as Natural ABA) was “causes growth inhibition” and the “germination of cress seed” value (cress seed) was “begins to germinate”. For the same compound, the “time by which 50% had disappeared from the medium” value (corn cells; initial 100 μM, corn cell culture (FIG. 10)) was at most 24 h, the “induction of GUS activity” value [4] was “strongly induced GUS activity” and the “germination inhibitory activity, wheat embryos (literature)” value (excised wheat embryos [5]) was “equally effective in inhibiting germination”. The “germination inhibitory activity, wheat embryos (literature)” value (excised wheat embryos [5]; listed as ABA) was “both enantiomers of ABA were equally effective”, the “shift (elevation) in pH of the medium (literature)” value ([6]; listed as Natural ABA) was “causes a transient elevation of pH of the corn cell culture medium; also recorded: causes a shift in the pH of the medium of cultured corn cells” and the “time of maximum of transient elevation of medium pH” value ([6]; after ABA addition) was “about 6 h”.
For CC[C@@]1(C)CC(=O)C=C(C)[C@]1(O)/C=C/C(C)=C\C(=O)OC [compound 370], the pEC50 (wheat seedlings; methyl esters) was 4.00, the “reduction of transpiration” value (wheat seedlings) was “relatively weak in this assay” and the “% transpiration effect (comparison in words)” value (wheat seedlings; methyl esters, (+)-forms, 10 μM, 3 hours (FIG. 4)) was “not as active as the vinyl analog”.
For CC1=CC(=O)CC(C)(C)[C@]1(O)/C=C/C(C)=C\C(=O)O [(-)-ABA], the “germination inhibitory activity, wheat embryos (literature)” value (excised wheat embryos [5]) is listed as “equally effective in inhibiting germination” and the “shift (elevation) in pH of the medium (literature)” value [6] is listed as “only weakly”.
With C=C[C@@]1(C)CC(=O)C=C(C)[C@]1(O)/C=C/C(C)=C\C(=O)O [(+)-8'-methylene ABA, (+) 8'-methyleneabscisic acid] the inhibition at 0.33 µM [1] was 64%, the pIC50 [1] was over 6.48 and the “growth inhibition activity” value [1] was “stronger growth inhibition activity than (+)-ABA at all tested concentrations; also recorded: more effective than ABA”. The “growth inhibition activity” value ([1]; listed as 8'-methylene ABA) was “the strongest growth inhibition produced by any ABA analog so far”, the “growth inhibition activity” value ([1]; listed as (+)-methylene ABA) was “significantly stronger than either (+)-ABA or (+)-8'-methyl ABA” and the “concentration giving equivalent germination inhibition” value (excised wheat embryos [2]) was 1.0 µM. For the same compound, the “times more effective than natural ABA, germination inhibition of excised wheat embryos” value (excised wheat embryos [2]; embryos from dormant wheat grains (FIG. 12)) was “at least 10 times”, the “germination inhibitory activity, wheat embryos (in words)” value (excised wheat embryos [2]; in vivo) was “more active than (+)-ABA; also recorded: most potent compound over all concentrations and time points; also recorded: more effective than ABA” and the “reduction of transpiration” value (wheat seedlings) was “more effective than ABA”. For the same compound, the “germination inhibition of cress seed” value (cress seed; 1 μM) was “more potent than ABA”, the “germination of cress seed” value (cress seed) was “does not germinate” and the “germination of cress seed” value (cress seed; listed as 8'-Methylene analog) was “remain dormant”. The “germination inhibition of cress seed (summary in words)” value (cress seed; in vivo) was “more effective than ABA”, the “shift in pH of the medium” value [7] was “causes a comparable shift in pH as that produced by ABA” and the “shift in pH of the medium” value ([7]; listed as (+)- 8'-methylene ABA) was “causes as great a shift in pH as ABA”. For the same compound, the “germination inhibition in seeds of both a monocot and a dicot” value [8] was “more effective germination inhibitor in seeds of both a monocot and a dicot”, the “time by which 50% had disappeared from the medium” value (corn cells; corn, corn cell culture medium, 100 µM) was about 100 h and the “induction of ABA-responsive gene expression (in words)” value ([4]; 100 μM) was “slightly weaker inducer than ABA; also recorded: highly effective in inducing ABA-responsive gene expression”. For the same compound, the “induction of GUS activity” value [4] was “strongly induced GUS activity” and the metabolites identified [9] was “two isomeric epoxides”.
With COC(=O)/C=C(C)\C=C\[C@@]1(O)C(C)=CC(=O)CC1(C)C [compound 214] the reduction in transpiration (wheat seedlings) was “Equivalent high activity” and the pEC50 (wheat seedlings; methyl ester, unit M) was 4.30 to 4.60.
For C=CC1(C)CC(=O)C=C(C)C1(O)/C=C/C(C)=C\C(=O)OC (single isomer, unassigned; (+)) [(+)-9'-ethylene methyl ABA], the reduction in transpiration (wheat seedlings) was “Equivalent high activity”.
